Results from article PMC3230703 (Journal of molecular biology, 2011).

Target: GBSSrtC1 (SAG2603 V/R sortase C1) (Streptococcus agalactiae, UniProt Q8E0S7)
Test: NMR
Type: binding
Conditions: irreversible cysteine protease inhibitor; in solution

## CC(C)C[C@H](NC(=O)[C@H]1O[C@@H]1C(=O)O)C(=O)NCCCCN=C(N)N [E64]
  NMR (results not shown): inhibitors MTSET and E64 in solution was confirmed by mass spectrometry and NMR, respectively
